Measurements published in PubChem BioAssay (NCI).
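Following 48 hours of exposure in 96-well plates, responses at five concentrations were used to interpolate endpoints linearly. Here, GI50 denotes the concentration required for 50% inhibition of growth. At the TGI there is no net growth.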

Key:
Assay in all cases: NCI tumour cell line growth inhibition, 48 h; in the data active = GI50 below about 0.43 µM; inactive = the rest
786-0 renal = test system: 786-0 renal
A498 renal = test system: A498 renal
A549 NSCLC = test system: A549 NSCLC
ACHN renal = test system: ACHN renal
BT-549 breast = test system: BT-549 breast
CAKI-1 renal = test system: CAKI-1 renal
CCRF-CEM leukemia = test system: CCRF-CEM leukemia
COLO 205 colon = test system: COLO 205 colon
DU-145 prostate = test system: DU-145 prostate
EKVX NSCLC = test system: EKVX NSCLC
HCC-2998 colon = test system: HCC-2998 colon
HCT-116 colon = test system: HCT-116 colon
HCT-15 colon = test system: HCT-15 colon
HL-60(TB) leukemia = test system: HL-60(TB) leukemia
HOP-62 NSCLC = test system: HOP-62 NSCLC
HOP-92 NSCLC = test system: HOP-92 NSCLC
HS 578T breast = test system: HS 578T breast
HT29 colon = test system: HT29 colon
IGROV1 ovarian = test system: IGROV1 ovarian
K-562 leukemia = test system: K-562 leukemia
KM12 colon = test system: KM12 colon
LOX IMVI melanoma = test system: LOX IMVI melanoma
M14 melanoma = test system: M14 melanoma
MALME-3M melanoma = test system: MALME-3M melanoma
MCF7 breast = test system: MCF7 breast
MDA-MB-231 breast = test system: MDA-MB-231 breast
MDA-MB-435 = test system: MDA-MB-435
MOLT-4 leukemia = test system: MOLT-4 leukemia
NCI-H226 lung = test system: NCI-H226 lung
NCI-H460 lung = test system: NCI-H460 lung
NCI-H522 lung = test system: NCI-H522 lung
NCI/ADR-RES ovarian = test system: NCI/ADR-RES ovarian
OVCAR-3 ovarian = test system: OVCAR-3 ovarian
OVCAR-4 ovarian = test system: OVCAR-4 ovarian
OVCAR-5 ovarian = test system: OVCAR-5 ovarian
OVCAR-8 ovarian = test system: OVCAR-8 ovarian
PC-3 prostate = test system: PC-3 prostate
RPMI-8226 leukemia = test system: RPMI-8226 leukemia
RXF 393 renal = test system: RXF 393 renal
SF-268 CNS = test system: SF-268 CNS
SF-295 CNS = test system: SF-295 CNS
SF-539 CNS = test system: SF-539 CNS
SK-MEL-2 melanoma = test system: SK-MEL-2 melanoma
SK-MEL-28 melanoma = test system: SK-MEL-28 melanoma
SK-MEL-5 melanoma = test system: SK-MEL-5 melanoma
SK-OV-3 ovarian = test system: SK-OV-3 ovarian
SN12C renal = test system: SN12C renal
SNB-19 CNS = test system: SNB-19 CNS
SNB-75 CNS = test system: SNB-75 CNS
SR leukemia = test system: SR leukemia
SW-620 colon = test system: SW-620 colon
T-47D breast = test system: T-47D breast
TK-10 renal = test system: TK-10 renal
U251 CNS = test system: U251 CNS
UACC-257 melanoma = test system: UACC-257 melanoma
UACC-62 melanoma = test system: UACC-62 melanoma
UO-31 renal = test system: UO-31 renal

Cc1ccc(-c2nc(C(Cl)Cl)nc3cc(-c4ccccc4)nn23)cc1
74.6 µM: TGI (SK-MEL-28 melanoma)
58.7 µM: TGI (SK-OV-3 ovarian)
35.2 µM: TGI (HT29 colon)
23.4 µM: TGI (COLO 205 colon)
96.7 µM: TGI (MOLT-4 leukemia)
58.3 µM: TGI (CAKI-1 renal)
73.1 µM: TGI (OVCAR-4 ovarian)
31.8 µM: TGI (ACHN renal)
79.4 µM: TGI (HOP-92 NSCLC)
29.7 µM: TGI (DU-145 prostate)
90.1 µM: TGI (OVCAR-8 ovarian)
> 100 µM: TGI (786-0 renal) | TGI (BT-549 breast) | TGI (CCRF-CEM leukemia) | TGI (HCT-116 colon) | TGI (HL-60(TB) leukemia) | TGI (HS 578T breast) | TGI (IGROV1 ovarian) | TGI (K-562 leukemia) | TGI (LOX IMVI melanoma) | TGI (MCF7 breast) | TGI (MDA-MB-231 breast) | TGI (NCI-H226 lung) | TGI (NCI/ADR-RES ovarian) | TGI (OVCAR-5 ovarian) | TGI (PC-3 prostate) | TGI (RPMI-8226 leukemia) | TGI (SF-268 CNS) | TGI (SF-539 CNS) | TGI (SK-MEL-2 melanoma) | TGI (SK-MEL-5 melanoma) | TGI (SN12C renal) | TGI (SNB-19 CNS) | TGI (SNB-75 CNS) | TGI (SR leukemia) | TGI (T-47D breast) | TGI (TK-10 renal) | TGI (UACC-257 melanoma) | TGI (UACC-62 melanoma) | TGI (UO-31 renal)
20 µM: TGI (HCC-2998 colon)
28.1 µM: TGI (A549 NSCLC)
34.1 µM: TGI (U251 CNS)
62.3 µM: TGI (HOP-62 NSCLC)
24 µM: TGI (RXF 393 renal)
58.9 µM: TGI (MALME-3M melanoma)
42.8 µM: TGI (NCI-H522 lung)
38.9 µM: TGI (A498 renal)
71.2 µM: TGI (SF-295 CNS)
30.3 µM: TGI (NCI-H460 lung)
inactive: GI50 (786-0 renal) > 100 µM | GI50 (A498 renal) 17.4 µM | GI50 (A549 NSCLC) 10 µM | GI50 (ACHN renal) 7.54 µM | GI50 (BT-549 breast) 30.7 µM | GI50 (CAKI-1 renal) 16.2 µM | GI50 (CCRF-CEM leukemia) 47.7 µM | GI50 (COLO 205 colon) 10.1 µM | GI50 (DU-145 prostate) 4.21 µM | GI50 (EKVX NSCLC) 17.8 µM | GI50 (HCC-2998 colon) 6.05 µM | GI50 (HCT-116 colon) 15.6 µM | GI50 (HCT-15 colon) 10.5 µM | GI50 (HL-60(TB) leukemia) 6.5 µM | GI50 (HOP-62 NSCLC) 16.5 µM | GI50 (HOP-92 NSCLC) 23.9 µM | GI50 (HS 578T breast) 56.9 µM | GI50 (HT29 colon) 7.41 µM | GI50 (IGROV1 ovarian) 36.3 µM | GI50 (K-562 leukemia) 22.4 µM | GI50 (KM12 colon) 17.8 µM | GI50 (LOX IMVI melanoma) 22.4 µM | GI50 (M14 melanoma) 20.6 µM | GI50 (MALME-3M melanoma) 23.3 µM | GI50 (MCF7 breast) 18.1 µM | GI50 (MDA-MB-231 breast) 20.5 µM | GI50 (MDA-MB-435) 25.3 µM | GI50 (MOLT-4 leukemia) 18.2 µM | GI50 (NCI-H226 lung) 75.2 µM | GI50 (NCI-H460 lung) 7.26 µM | GI50 (NCI-H522 lung) 14.5 µM | GI50 (NCI/ADR-RES ovarian) 13.5 µM | GI50 (OVCAR-3 ovarian) 13.4 µM | GI50 (OVCAR-4 ovarian) 17.9 µM | GI50 (OVCAR-5 ovarian) 24.2 µM | GI50 (OVCAR-8 ovarian) 15.3 µM | GI50 (PC-3 prostate) 23.7 µM | GI50 (RPMI-8226 leukemia) 35.9 µM | GI50 (RXF 393 renal) 10.6 µM | GI50 (SF-268 CNS) 24.6 µM | GI50 (SF-295 CNS) 24 µM | GI50 (SF-539 CNS) 61.1 µM | GI50 (SK-MEL-2 melanoma) > 100 µM | GI50 (SK-MEL-28 melanoma) 27.2 µM | GI50 (SK-MEL-5 melanoma) > 100 µM | GI50 (SK-OV-3 ovarian) 20.9 µM | GI50 (SN12C renal) 98.9 µM | GI50 (SNB-19 CNS) 19.7 µM | GI50 (SNB-75 CNS) > 100 µM | GI50 (SR leukemia) 9.91 µM | GI50 (SW-620 colon) 9.97 µM | GI50 (T-47D breast) 28.3 µM | GI50 (TK-10 renal) 33.3 µM | GI50 (U251 CNS) 9.5 µM | GI50 (UACC-257 melanoma) 35.3 µM | GI50 (UACC-62 melanoma) 81.8 µM | GI50 (UO-31 renal) > 100 µM
55.8 µM: TGI (SW-620 colon)
50.2 µM: TGI (M14 melanoma)
98 µM: TGI (MDA-MB-435)
66.4 µM: TGI (KM12 colon)
31.5 µM: TGI (OVCAR-3 ovarian)
72.3 µM: TGI (HCT-15 colon)
57.8 µM: TGI (EKVX NSCLC)
